From patent US20240016735A1, “IONIC LIQUIDS FOR DRUG DELIVERY” (PRESIDENT AND FELLOWS OF HARVARD COLLEGE, priority 2019, published 2024)

Experiments:
[1] = anion of ionic liquid; cited from earlier work
[2] = system: intestinal villi of Wistar rats; test: In vivo local delivery of antibody-CGLY via intrajejunal administration; details: rat, 1 mg mL^−1 FITC-IgG in 50% v/v CGLY2:1, 2 h
Description: Rats receiving equivalent saline injection without FITC-IgG were used as the negative control group. After 2 h, the rats were sacrificed and jejunal tissues were harvested and preserved using Swiss-rolling technique^[14]. […] The tissues were then frozen at −80° C. in the presence of optimum cutting temperature (OCT) compound and tissue sections were cut into 25 m thickness. was visualized using a slide scanner microscope (ZEISS Axio Scan.Z1) and the images processed using Zen™ (Blue edition) software.

[3] = cation:anion 1:2
Text: IL selection. A library of ILs was designed and synthesized to assess siRNA delivery into skin. Cholinium was used as the cation in all ILs due to its biocompatibility. Several different anions were used to synthesize ILs (FIGS. 24A-24E). […] Other anions were chosen for several reasons. First, anions containing shorter linear carbon chains were chosen in contrast to geranic acid to assess the impact of the chain length on siRNA stability and delivery. Anions with aromatic groups were chosen since they might interact with the stacked RNA base pairs via electrostatic, hydrophobic, and polar interactions. All ILs were prepared at a stoichiometric ratio of 1:2 (cation:anion) and were assessed for stability and siRNA delivery. […] In addition, since both interleukin and ILs have been denoted as “IL,” for the purpose of clarity, all interleukins are referred by a numerical value throughout the manuscript.
(§1) Skin-penetrating IL-RNA complexes. The cholinium-based IL library was synthesized as described previously (26). Briefly, the cation, choline bicarbonate, and various anions were mixed at a 1:2 ratio to prepare ILs following salt metathesis reaction. […] The resulting IL solution was dried using a rotary evaporator at 20 mbar at 60° C. for 2 hours. The residual water was removed in a vacuum oven at 60° C. for 48 hours. The ILs that were viscous at RT were characterized via NMR with dimethyl sulfoxide (DMSO)-d6 on an Agilent DD2 600-MHz spectrometer (Supplementary Materials and Methods). ILs were mixed with RNA (100 μM) at a volumetric ratio of 1:1 and incubated for 30 min at RT. The RNA-IL solutions (1 ml) were dialyzed against 10 mM sodium phosphate buffer for 72 hours using Dialysis Cassettes (10,000 molecular weight cutoff, Invitrogen). The concentration of RNA was confirmed and normalized using a NanoDrop instrument (Thermo Fisher Scientific). The stability of the RNA in the IL solution was determined using CD and gel electrophoresis.

siRNA = details: IL 50% (v/v), 30 min incubation, dialysis 72 h
Description: as §1
RNA concentrations were normalized in 10 mM sodium phosphate buffer and incubated for 30 mins at RT to ensure reduction and equilibrium, and then loaded into quartz cuvettes. Near-UV spectra were recorded from 200 nm to 310 nm at 20° C. by averaging 5 scans at 0.1 nm intervals for each sample. Spectrum Manager 2 was used to subtract the baseline and the spectra were plotted as molar ellipticity, [0] (deg.cm2.dmol-1).

porcine skin = test: Porcine skin penetration of Cy5-labeled siRNA in Franz diffusion cells (tape-stripping); type: in vitro ADME; details: 24 h, IL 50% v/v or naked siRNA
Description: Skin penetration studies. Skin penetration studies were performed using porcine skin in FDCs, as described previously (40). A total volume of 20 μl of Cy5-labeled RNA (50 μM) in IL solutions was applied to the porcine skin surface and was incubated at 40° C. for 24 hours under occlusive conditions with moderate stirring. The skin permeability of RNA was visualized and quantified using confocal microscopy and tape-stripping techniques, respectively.
Porcine skin penetration ex-vivo studies Porcine skin studies were carried out in Franz diffusion cells (FDC) with penetration area of 1.77 cm^2. The porcine skin was obtained from Lampire Biological Laboratories, Pipersville, PA, USA. Briefly skins were thawed, hairs were trimmed, and washed with phosphate buffer saline (PBS, pH 7.4). A 36 mm punch was used to cut out a disc of the skin and a scalpel was used to get rid of the connective tissues and subcutaneous fat layers. […] 1 mL PBS was added to the donor chamber and the conductivity was measured using a waveform generator (Agilent 33120) and voltmeter (Fluke 87 True RMS Multimeter) at a frequency of 100 Hz and amplitude, 100 mV. Only skin samples with a measured transepidermal conductivity of less than […] were used for further studies. […] Following incubation, the skin was removed from the cell, washed gently with PBS and were further analyzed using tape-stripping and confocal microscopy. […]

| Compound | pKa [1] | physical state at room temperature [3] | siRNA secondary structure (CD, band at 210 nm) (siRNA) | further results |
| --- | --- | --- | --- | --- |
| CC(C)=CC(=O)O [3,3-dimethylacrylic acid] | 5.02 |  |  |  |
| O=S(=O)(O)c1ccc(O)cc1 [4-hydroxybenzenesulfonic acid] | 9.11 |  |  |  |
| O=C(O)c1cccc(-c2ccccc2)c1 [Bipheny1-3-carboxylic acid] | 4.14 |  |  |  |
| C[N+](C)(C)CCO.O=C([O-])CO [CGLY2:1, choline-glycolate] |  |  |  | FITC-IgG fluorescence signal on intestinal villi vs no-CGLY2:1 control [2]: over 4.5 fold |
| O=P(O)(O)Oc1ccccc1 [Phenylphosphoric acid] | 9.99 |  |  |  |
| choline and biphenyl-3-carboxylic acid [CABA] |  | solidified or formed a gel | notable alteration in the a helix backbone |  |
| choline and dimethylacrylic acid [CADA] |  | viscous liquid | notable alteration in the a helix backbone |  |
| choline and geranic acid [CAGE, reference compound] |  | viscous liquid | notable alteration in the a helix backbone | siRNA delivered into the epidermis (porcine skin): About 0.20 nmol/cm2 |
| choline and phenylphosphoric acid [CAPP] |  | solidified or formed a gel |  |  |
| choline and phenylpropanoic acid [CAPA] |  | viscous liquid | retained the secondary structure of siRNA |  |
